We go through two compounds from publication PMC9760430, “A stapled chromogranin A-derived peptide homes in on tumors that express αvβ6 or αvβ8 integrins” (International Journal of Biological Sciences, 2023).

Series [1] concerns human umbilical vein endothelial cells (HUVECs) (αvβ6- and αvβ8-). Put plainly: binding of peptide-IRDye conjugates to cultured HUVECs. To be noted: 0.32-200 nM, 1 h, 37 °C; bound NIR fluorescence. Type of series: cell-based. Here is the method:
To assess the binding of peptide-IRDye conjugates to cells various amounts of conjugates (range 0.32-200 nM) were added to cultured cells and left to incubate for 1 h at 37 °C. After three washings, the cells were fixed and analyzed by scanning the plate with the Odyssey CLx.
A control conjugate with a cysteine in place of the peptide was also prepared in parallel. The identity of the purified products, called 5a-IRDye, 2a-IRDye, and Cys-IRDye, was confirmed by mass spectrometry analysis (Table S1). In addition, the purity and identity of 5a-IRDye was monitored by liquid chromatography–mass spectrometry (LC-MS). […]
that the product consist of a single peak at 230 and 735 nm with the expected molecular weight (purity >95%) (Figure S3A).
The simplified molecular-input line-entry system (SMILES) of 5a-, 2a-, Cys- and 5a-Scr- […]
The concentration of each conjugate was quantified by spectrophotometric analysis at 774 nm (molar absorption coefficient, 240,000 M-1, cm-1) (Figure S3B). […]
The binding of peptide-IRDye conjugates to BxPC-3, 5M7101, and HUVECs cells was analyzed as follows. […]
chloride and 1% BSA (binding buffer) for 5 min. […] Binding of conjugates to cells was quantified by scanning the plate (filled with PBS, 100 µl/well) with the Odyssey CLx (LI-COR) using the above settings, except that the scan focus offset and scan intensity were set to 4 and 8.5, respectively. […]

Series [2] concerns BxPC-3 cells (αvβ6+/αvβ8-). Put plainly: binding of peptide-IRDye conjugates to cultured BxPC-3 cells. Type of series: cell-based, human. The conditions noted are these: 0.32-200 nM, 1 h, 37 °C; bound NIR fluorescence.
A short description of series [3]: plasma pharmacokinetics in mice. Type of series: in vivo. The conditions noted are these: BALB/c mice, 1 nmol i.v.; plasma fluorescence 5-1440 min; two-phase exponential decay fit; 4 mice per point. Here is the method: Figure S13. Plasma pharmacokinetics of 5a-IRDye in mice.
Eight BALB/c mice were divided in 2 groups (4 mice/group) and injected i.v. with 5a-IRDye (1 nmol). Their blood was then collected into heparinized tubes at 5, 30, 120, 240, and 1440 min (group 1) or after 15, 60, 180, 360, and 1440 min (group 2). Plasma samples (20 µl) were diluted with PBS (50 µl, final volume) and transferred to a black 96-well microtiter plate. The amount of fluorescence in each sample was then quantified using an Infinite 200Pro reader plate (TECAN, excitation wavelength: 766 nm; emission wavelength: 810 nm; excitation bandwidth: 9 nm; emission bandwidth: 20 nm; gain: 180 optimal (100%) and number of flashes:
25). (Dots, mean ± SE, 4 mice). Plasma half-life of 5a-IRdye was calculated using a two-phase exponential decay equation (GraphPad Prism software, San Diego California).
Chromogranin A binds to avb6-integrin and promotes wound healing in mice. Cell Mol […]
(1 picture or pasted object on this page, not shown here)

As for `CC1(C)C(/C=C/C2=C(Oc3ccc(S(=O)(=O)O)cc3)C(=C\C=C3/N(CCCCCC(=O)NCCN4C(=O)CC(SC[C@H](N)C(=O)O)C4=O)c4ccc(S(=O)(=O)O)cc4C3(C)C)/CCC2)=[N+](CCCCS(=O)(=O)O)c2ccc(S(=O)(=O)[O-])cc21` (stereo partly drawn) [Cys-IRDye], in series [1], the “binding of conjugate to HUVECs” value is reported as “little or no binding”. Besides, in series [2], the “binding of conjugate to BxPC-3 cells” value is “little or no binding”.
As to `CC[C@H](C)[C@H](NC(=O)[C@H](CCCNC(=N)N)NC(=O)[C@H](CC(C)C)NC(=O)[C@H](CC(=O)O)NC(=O)CNC(=O)[C@H](CCCNC(=N)N)NC(=O)[C@H](CC(C)C)NC(=O)[C@@H](NC(=O)[C@H](CCC(=O)O)NC(=O)[C@H](Cc1ccccc1)NC(=O)[C@@H](N)CSC1CC(=O)N(CCNC(=O)CCCCCN2C(=CC=C3CCCC(C=CC4=[N+](CCCCS(=O)(=O)[O-])c5ccc(S(=O)(=O)O)cc5C4(C)C)=C3Oc3ccc(S(=O)(=O)O)cc3)C(C)(C)c3cc(S(=O)(=O)O)ccc32)C1=O)[C@@H](C)O)C(=O)N[C@@H](CC(C)C)C(=O)N[C@@H](CO)C(=O)N[C@H](C(=O)N[C@@H](CC(C)C)C(=O)N[C@@H](CCCNC(=N)N)C(=O)N[C@H]1Cc2cn(nn2)CCCC[C@@H](C(=O)N[C@@H](CCCCN)C(=O)N[C@@H](CCC(=O)O)C(=O)N[C@@H](CC(C)C)C(=O)N[C@@H](CCC(N)=O)C(=O)N[C@@H](CC(=O)O)C(N)=O)NC(=O)[C@H](CC(C)C)NC(=O)[C@H](CC(N)=O)NC(=O)[C@H](CCC(N)=O)NC1=O)[C@@H](C)CC` (stereo partly drawn) [5a-IRDye], the plasma half-life in series [3] is listed as ~ 8 min.
